Assay results reported in patent US20100056535A1, “Inhibitors of HIV-1 reverse transcriptase” (Roche Palo Alto LLC, priority 2008, published 2010).
Where two headings read alike, the source gives them in different places.

Columns and labels:
[1] = biological target: HIV-1 RT (Human immunodeficiency virus type 1 group M subtype B, UniProt P03366); test: Heteropolymer HIV Reverse Transcriptase Assay: Inhibitor IC50 Determination; format: biochemical
Procedure: Heteropolymer HIV Reverse Transcriptase Assay: Inhibitor IC50 Determination
HIV-1 RT assay was carried out in 96-well Millipore MultiScreen MADVNOB50 plates using purified recombinant enzyme and a poly(rA)/oligo(dT)16 template-primer in a total volume of 50 μL. The assay constituents were 50 mM Tris/HCl, 50 mM NaCl, 1 mM EDTA, 6 mM MgCl2, 5 μM dTTP, 0.15 μCi [^3H] dTTP, 5 μg/ml poly (rA) pre annealed to 2.5 μg/ml oligo (dT)16 and a range of inhibitor concentrations in a final concentration of 10% DMSO. Reactions were initiated by adding 4 nM HIV-1 RT and after incubation at 37° C. for 30 min, they were stopped by the addition of 50 μl ice cold 20% TCA and allowed to precipitate at 4° C. for 30 min. The precipitates were collected by applying vacuum to the plate and sequentially washing with 3×200 μl of 10% TCA and 2×200 μl 70% ethanol. Finally, the plates were dried and radioactivity counted in a Packard TopCounter after the addition of 25 μl scintillation fluid per well. IC50's were calculated by plotting % inhibition versus log10 inhibitor concentrations. Representative IC50 data is depicted in TABLE 2.

[2] = tested on: HXB2-strain of HIV-1 in MT4 cells; test: Antiviral assay: protection of HIV-1-infected MT4 cells from cell death (MTT); format: cell-based
Procedure: Anti-HIV-1 antiviral activity was assessed using an adaptation of the method of Pauwels et al. (Pauwels et al., J Virol Methods 1988 20:309-321). The method is based on the ability of compounds to protect HIV-1-infected T lymphoblastoid cells (MT4 cells) from cell-death mediated by the infection. The endpoint of the assay was calculated as the concentration of compound at which the cell viability of the culture was preserved by 50% (‘50% inhibitory concentration’, IC50). The cell viability of a culture was determined by the uptake of soluble, yellow 3-[4,5-dimethylthiazol-2-yl]-2,5-diphenyltetrazolium bromide (MTT) and its reduction to a purple insoluble formazan salt. After solubilization, spectrophotometric methods were employed to measure the amount of formazan product.
MT4 cells were prepared to be in logarithmic-phase growth and a total of 2×10^6 cells infected with the HXB2-strain of HIV-1 at a multiplicity of 0.0001 infectious units of virus per cell in a total volume of between 200-500 microliters. The cells were incubated with virus for one hour at 37° C. before removal of virus. The cells are then washed in 0.01 M phosphate buffered saline, pH 7.2 before being resuspensed in culture medium for incubation in culture with serial dilutions of test compound. The culture medium used was RPMI 1640 without phenol red, supplemented with penicillin, streptomycin, L-glutamine and 10% fetal calf serum (GM10).
Test compounds were prepared as 2 mM solutions in dimethyl sulfoxide (DMSO). Four replicate, serial 2-fold dilutions in GM10 were then prepared and 50 microliters amounts placed in 96-well plates over a final nanomolar concentration range of 625-1.22. Fifty microliters GM10 and 3.5×10^4 infected cells were then added to each well. Control cultures containing no cells (blank), uninfected cells (100% viability; 4 replicates) and infected cells without compound (total virus-mediated cell death; 4 replicates) were also prepared. The cultures were then incubated at 37° C. in a humidified atmosphere of 5% CO2 in air for 5 days.
A fresh solution of 5 mg/mL MTT was prepared in 0.01 M phosphate buffered saline, pH 7.2 and 20 microliters added to each culture. The cultures were further incubated as before for 2 hours. They were then mixed by pipetting up and down and 170 microliters of Triton X-100 in acidified isopropanol (10% v/v Triton X-100 in 1:250 mixture of concentrated HCl in isopropanol). When the formazan deposit was fully solubilized by further mixing, the absorbance (OD) of the cultures was measured at 540 nm and 690 nm wavelength (690 nm readings were used as blanks for artifacts between wells). The percent protection for each treated culture was then calculated from the equation: […]
The IC50 can be obtained from graph plots of percent protection versus log10 drug concentration.

[3] = purified recombinant enzyme, poly(rA)/oligo(dT)16 template-primer, read-out: Polymerase Inhibition IC50
[4] = Human immunodeficiency virus 1, HXB2, wild type virus, MT4 cells, 10% fetal calf serum, read-out: IC50 Antiviral wt:fbs:10%
[5] = Human immunodeficiency virus 1, HXB2, MT4, read-out: IC50 Antiviral wt:fbs:10%

SMILES | IC50 [1, 3] [nM] | IC50 [2, 4] [nM] | IC50 [2, 5] [nM] | IC50 [1] [nM]
C=Cc1c(Oc2cc(Cl)cc(C#N)c2)c(CC)c[nH]c1=O [II-3, 3-Chloro-5-(5-ethyl-2-oxo-3-vinyl-1,2-dihydro-pyridin-4-yloxy)-benzonitrile] | 5.6 | 3.3 |  | 
CCc1c(C)[nH]c(=O)c(Br)c1Oc1cc(Cl)cc(C#N)c1 [II-6, 3-(3-Bromo-5-ethyl-6-methyl-2-oxo-1,2-dihydro-pyridin-4-yloxy)-5-chloro-benzonitrile] | 7.3 | 2.4 |  | 
N#Cc1cc(Cl)cc(Oc2cc(CCc3nc4ccccc4o3)[nH]c(=O)c2Cl)c1 [Compound I-19, 3-[6-(2-Benzooxazol-2-yl-ethyl)-3-chloro-2-oxo-1,2-dihydro-pyridin-4-yloxy]-5-chloro-benzonitrile] | 6.3 |  | 6.9 | 
N#Cc1cc(Cl)cc(Oc2c(F)c(CCc3ccncc3)[nH]c(=O)c2Br)c1 [Compound I-20, 3-[3-Bromo-5-fluoro-2-oxo-6-(2-pyridin-4-yl-ethyl)-1,2-dihydro-pyridin-4-yloxy]-5-chloro-benzonitrile] | 1.5 |  | 4.4 | 
N#Cc1cc(Cl)cc(Oc2c(CSCc3ccccc3)c[nH]c(=O)c2Br)c1 [II-18, 3-(5-Benzylsulfanylmethyl-3-bromo-2-oxo-1,2-dihydro-pyridin-4-yloxy)-5-chloro-benzonitrile] |  | 4.2 |  | 0.4
